Read-outs that look alike come from different tables or passages of the source.
Target: human Plasma Kallikrein (Homo sapiens (Human), UniProt P03952)
Experiment: In vitro enzyme inhibition of human plasma kallikrein (PFR-AMC cleavage)
Type: biochemical
Experimental: The ability of the compounds disclosed herein to inhibit human plasma kallikrein activity was quantified according to the procedures below.
A 10 mM solution of the test compound was made in DMSO. […] A control tube containing only DMSO is included. 16 μL of each compound test solution was combined with 384 μL of assay buffer (50 mM Tris-HCl pH 7.5, 150 mM NaCl, 0.01% Triton X-100) to yield a “4× test compound buffer stock”.
These solutions are hereby referred to as 4×hPK and 2×PFR-AMC, respectively.
50 μL was removed from this mixture and placed into duplicate wells on a Microfluor 1Black U-bottom microtiter plate (Thermo Scientific). This plate was incubated for 5 minutes at 37° C. To each well, 50 μL of pre-warmed 2×PFR-AMC was added to start the enzymatic reaction. Cleavage of PFR-AMC was monitored in a Biotek Synergy H4 reader set at 37° C. Readings are taken every 43 seconds for 1 hour. […] The IC50 is calculated using the Gen5 (Biotek Instruments).
The ability of the compounds in Table 3 to inhibit human plasma kallikrein activity was determined.

[1] = human plasma kallikrein, Pro-Phe-Arg-AMC substrate, 37° C., read-out: hPK IC50

Sequence of human Plasma Kallikrein (P03952 20-638): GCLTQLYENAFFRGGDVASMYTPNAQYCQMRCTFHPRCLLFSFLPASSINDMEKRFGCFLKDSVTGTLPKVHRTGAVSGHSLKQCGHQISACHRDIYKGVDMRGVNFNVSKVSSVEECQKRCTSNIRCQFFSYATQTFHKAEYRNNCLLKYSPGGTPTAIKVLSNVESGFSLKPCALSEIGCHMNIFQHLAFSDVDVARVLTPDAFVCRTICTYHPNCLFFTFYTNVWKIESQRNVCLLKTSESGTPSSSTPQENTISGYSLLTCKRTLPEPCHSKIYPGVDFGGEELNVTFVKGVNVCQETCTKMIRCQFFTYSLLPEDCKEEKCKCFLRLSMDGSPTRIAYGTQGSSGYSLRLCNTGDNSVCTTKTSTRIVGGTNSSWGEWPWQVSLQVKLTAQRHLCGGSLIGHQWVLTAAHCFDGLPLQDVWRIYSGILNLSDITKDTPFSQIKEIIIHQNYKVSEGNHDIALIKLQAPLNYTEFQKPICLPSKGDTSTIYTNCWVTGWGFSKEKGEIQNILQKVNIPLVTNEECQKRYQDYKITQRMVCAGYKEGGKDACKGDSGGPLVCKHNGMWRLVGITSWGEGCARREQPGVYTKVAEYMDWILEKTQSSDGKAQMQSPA

Row | Compound | IC50 [1] | IC50
1 | CS(=O)(=O)c1ccc2ncc(Cc3cc(C(=O)NCc4cc5c(Cl)c[nH]c5cc4F)ccn3)cc2c1 [Example 12, N-((3-chloro-6-fluoro-1H-indol-5-yl)methyl)-2-((6-(methylsulfonyl)quinolin-3-yl)methyl)isonicotinamide] | < 100 nM | 
2 | CC(=O)NCc1ccc2cc(Cc3cc(C(=O)NCc4cc5c(Cl)c[nH]c5cc4F)ccn3)ccc2n1 [Example 9, 2-[2-(acetylamino-methyl)-quinolin-6-ylmethyl]-N-(3-chloro-6-fluoro-1H-indol-5-ylmethyl)-isonicotinamide] | 100 to 1000 nM | 
3 | O=C(NCc1cc2cn[nH]c2cc1F)c1ccnc(Cc2ccc3ncc(Cl)cc3c2)c1 [Example 32, 2-(3-chloro-quinolin-6-ylmethyl)-N-(6-fluoro-1H-indazol-5-ylmethyl)-isonicotinamide] | 1000 to 10000 nM | 
4 | Cc1cc(N)nc(C)c1CNC(=O)c1ccnc(Cn2cc3cc(Cl)ccc3n2)c1 [Example 106, N-((6-amino-2,4-dimethylpyridin-3-yl)methyl)-2-((5-chloro-2H-indazol-2-yl)methyl)isonicotinamide] | < 100 nM | 
5 | Cc1cc(N)nc(C)c1CNC(=O)c1ccnc(Cc2cnc3ccc(S(C)(=O)=O)cc3c2)c1 [Example 14, N-((6-amino-2,4-dimethylpyridin-3-yl)methyl)-2-((6-(methylsulfonyl)quinolin-3-yl)methyl)isonicotinamide] | 100 to 1000 nM | 
6 | O=C(NCc1cc2cc[nH]c2cc1F)c1ccnc(Cc2ccc3ncc(Cl)cc3c2)c1 [Example 41, 2-(3-chloro-quinolin-6-ylmethyl)-N-(6-fluoro-1H-indol-5-ylmethyl)-isonicotinamide] | < 100 nM | 
7 | Cc1cnc2c(C#N)cc(Cc3cc(C(=O)NCc4ccc5[nH]cc(Cl)c5c4F)ccn3)cc2c1 [Example 74, N-((3-chloro-4-fluoro-1H-indol-5-yl)methyl)-2-((8-cyano-3-methylquinolin-6-yl)methyl)isonicotinamide] | < 100 nM | 
8 | N#Cc1cnc2ccc(Cc3cc(C(=O)NCc4ccc5c(N)nccc5c4)ccn3)cc2c1 [Example 6, N-((1-aminoisoquinolin-6-yl)methyl)-2-((3-cyanoquinolin-6-yl)methyl)isonicotinamide] | < 100 nM | 
9 | O=C(NCc1cc2c(Cl)c[nH]c2cc1F)c1ccnc(Cc2cnc3ccc(F)cc3c2)c1 [Example 120, N-((3-chloro-6-fluoro-1H-indol-5-yl)methyl)-2-((6-fluoroquinolin-3-yl)methyl)isonicotinamide] | < 100 nM | 
10 | Cc1cc(N)nc(C)c1CNC(=O)c1ccnc(Cc2ccc3c(cc(Cl)c[n+]3[O-])c2)c1 [Example 99, 6-((4-(((6-amino-2,4-dimethylpyridin-3-yl)methyl)carbamoyl)pyridin-2-yl)methyl)-3-chloroquinoline 1-oxide] | < 100 nM | 
11 | O=C(NCc1cc2c(Cl)c[nH]c2cc1F)c1ccnc(Cc2cnc3ccccc3c2)c1 [Example 125, N-((3-chloro-6-fluoro-1H-indol-5-yl)methyl)-2-(quinolin-3-ylmethyl)isonicotinamide] | < 100 nM | 
12 | Cc1cc(N)nc(C)c1CNC(=O)c1ccnc(Cc2ccc3ncc(C#N)cc3c2)c1 [Example 7, N-((6-amino-2,4-dimethylpyridin-3-yl)methyl)-2-((3-cyanoquinolin-6-yl)methyl)isonicotinamide] | < 100 nM | 
13 | Nc1ccc(CNC(=O)c2ccnc(Cc3ccc4ncc(Cl)cc4c3)c2)c(C(F)(F)F)n1 [Example 30, N-((6-amino-2-(trifluoromethyl)pyridin-3-yl)methyl)-2-((3-chloroquinolin-6-yl)methyl)isonicotinamide] | > 10000 nM | 
14 | Cc1cc(N)nc(C)c1CNC(=O)c1ccnc(Cn2ccc3c(Cl)cccc3c2=O)c1 [Example 22, N-(6-Amino-2,4-dimethyl-pyridin-3-ylmethyl)-2-(5-chloro-1-oxo-1H-isoquinolin-2-ylmethyl)-isonicotinamide] |  | 100 to 1000 nM
15 | NC(=O)c1ccc2cc(Cc3cc(C(=O)NCc4cc5c(Cl)c[nH]c5cc4F)ccn3)ccc2n1 [Example 1, 6-((4-(((3-chloro-6-fluoro-1H-indol-5-yl)methyl)carbamoyl)pyridin-2-yl)methyl)quinoline-2-carboxamide] | 100 to 1000 nM | 

More lines, main results first:

Row | IC50 [1] | Compound | IC50
16 | < 100 nM | Nc1nccc2cc(CNC(=O)c3ccnc(Cc4cnc5cc(Cl)ccc5c4)c3)ccc12 [Example 139, N-((1-aminoisoquinolin-6-yl)methyl)-2-((7-chloroquinolin-3-yl)methyl)isonicotinamide] | 
17 | < 100 nM | Cc1ccc2c(cnn2Cc2cc(C(=O)NCc3c(C)cc(N)nc3C)ccn2)c1 [Example 108] | 
18 | < 100 nM | O=C(NCc1cc2c(Cl)c[nH]c2cc1F)c1ccnc(Cc2cc(F)c3ncc(Cl)cc3c2)c1 [Example 90, N-(3-chloro-6-fluoro-1H-indol-5-ylmethyl)-2-(3-chloro-8-fluoro-quinolin-6-ylmethyl)-isonicotinamide] | 
19 | 100 to 1000 nM | NCc1ccc2cc(Cc3cc(C(=O)NCc4cc5c(Cl)c[nH]c5cc4F)ccn3)ccc2n1 [Example 45, 2-((2-(aminomethyl)quinolin-6-yl)methyl)-N-((3-chloro-6-fluoro-1H-indol-5-yl)methyl)isonicotinamide] | 
20 | < 100 nM | Cc1cc(N)nc(C)c1CNC(=O)c1ccnc(Cc2cnc3ccc(F)cc3c2)c1 [Example 119, N-((6-amino-2,4-dimethylpyridin-3-yl)methyl)-2-((6-fluoroquinolin-3-yl)methyl)isonicotinamide] | 
21 | 100 to 1000 nM | Cc1ccc2ccc(Cc3cc(C(=O)NCc4c(C)cc(N)nc4C)ccn3)cc2n1 [Example 129, N-((6-amino-2,4-dimethylpyridin-3-yl)methyl)-2-((2-methylquinolin-7-yl)methyl)isonicotinamide] | 
22 | 100 to 1000 nM | NC(=O)c1ccc2cc(Cc3cc(C(=O)NCc4ccc5c(N)nccc5c4)ccn3)ccc2n1 [Example 4] | 
23 | 1000 to 10000 nM | Nc1noc2cc(CNC(=O)c3ccnc(Cc4ccc5ncc(Cl)cc5c4)c3)ccc12 [Example 36, N-((3-aminobenzo[d]isoxazol-6-yl)methyl)-2-((3-chloroquinolin-6-yl)methyl)isonicotinamide] | 
24 | 100 to 1000 nM | NCc1ccc2cc(Cc3cc(C(=O)NCc4ccc5c(N)nccc5c4)ccn3)ccc2n1 [Example 146, N-((1-aminoisoquinolin-6-yl)methyl)-2-((2-(aminomethyl)quinolin-6-yl)methyl)isonicotinamide] | 
25 | 100 to 1000 nM | Cc1cc(N)nc(C)c1CNC(=O)c1ccnc(Cn2cc3cc(Cl)ccc3cc2=O)c1 [Example 87, N-((6-amino-2,4-dimethylpyridin-3-yl)methyl)-2-((7-chloro-3-oxoisoquinolin-2(3H)-yl)methyl)isonicotinamide] | 
26 | < 100 nM | N#Cc1cc(Cc2cc(C(=O)NCc3cc4c(Cl)c[nH]c4cc3F)ccn2)cc2cc(Cl)cnc12 [Example 49, N-((3-chloro-6-fluoro-1H-indol-5-yl)methyl)-2-((3-chloro-8-cyanoquinolin-6-yl)methyl)isonicotinamide] | 
27 | < 100 nM | Cc1cc(N)nc(C)c1CNC(=O)c1ccnc(Cc2cnc3cc(Cl)ccc3c2)c1 [Example 141, N-((6-amino-2,4-dimethylpyridin-3-yl)methyl)-2-((7-chloroquinolin-3-yl)methyl)isonicotinamide] | 
28 | < 100 nM | Cc1cc2cc(Cc3cc(C(=O)NCc4cc5c(Cl)c[nH]c5cc4F)ccn3)ccc2cn1 [Example 133, N-((3-chloro-6-fluoro-1H-indol-5-yl)methyl)-2-((3-methylisoquinolin-6-yl)methyl)isonicotinamide] | 
29 | 1000 to 10000 nM | Cc1nc(N)c(C#N)cc1CNC(=O)c1ccnc(Cc2ccc3ncc(Cl)cc3c2)c1 [Example 26, N-((6-amino-5-cyano-2-methylpyridin-3-yl)methyl)-2-((3-chloroquinolin-6-yl)methyl)isonicotinamide] | 
30 | < 100 nM | N#Cc1ccc2cc(Cc3cc(C(=O)NCc4ccc5c(N)nccc5c4)ccn3)ccc2n1 [Example 3, N-((1-aminoisoquinolin-6-yl)methyl)-2-((2-cyanoquinolin-6-yl)methyl)isonicotinamide] | 
31 | < 100 nM | Cc1ccc2ccc(Cc3cc(C(=O)NCc4cc5c(Cl)c[nH]c5cc4F)ccn3)cc2n1 [Example 128, N-((3-chloro-6-fluoro-1H-indol-5-yl)methyl)-2-((2-methylquinolin-7-yl)methyl)isonicotinamide] | 
32 | 100 to 1000 nM | O=C(NCc1cc2c(Cl)c[nH]c2cc1F)c1ccnc(Cn2cc3cc(Cl)ccc3cc2=O)c1 [Example 88, 2-((7-chloro-3-oxoisoquinolin-2(3H)-yl)methyl)-N-((3-chloro-6-fluoro-1H-indol-5-yl)methyl)isonicotinamide] | 
33 | < 100 nM | Cc1cc(N)nc(C)c1CNC(=O)c1ccnc(Cc2ccc3ncc(Cl)cc3c2F)c1 [Example 102, N-((6-amino-2,4-dimethylpyridin-3-yl)methyl)-2-((3-chloro-5-fluoroquinolin-6-yl)methyl)isonicotinamide] | 
34 | > 10000 nM | Cc1ccc2ncc(Cc3cc(C(=O)NCc4ccc5c(N)noc5c4)ccn3)cc2c1 [Example 48, N-((3-aminobenzo[d]isoxazol-6-yl)methyl)-2-((6-methylquinolin-3-yl)methyl)isonicotinamide] | 
35 | 100 to 1000 nM | Cc1cc(N)ncc1CNC(=O)c1ccnc(Cn2cc3cc(Cl)ccc3cc2=O)c1 [Example 85, N-((6-amino-4-methylpyridin-3-yl)methyl)-2-((7-chloro-3-oxoisoquinolin-2(3H)-yl)methyl)isonicotinamide] | 

From patent US9611252B2 (LifeSci Pharmaceuticals, Inc., priority 2013, dated 2017)
